What was measured:
Format in all cases: cell-based
M4 muscarinic receptor = molecular target: T1, M4 muscarinic receptor (Homo sapiens, UniProt P08173); assay: Functional mobilization of intracellular calcium (FLIPR), M4-CHO cells; settings: for M4 Activity: M4-CHO cells, calcium mobilization (FLIPR)
T1 construct: expressed in transfected cells; host or cells: CHO (M4-CHO)
T1 sequence (P08173 1-479): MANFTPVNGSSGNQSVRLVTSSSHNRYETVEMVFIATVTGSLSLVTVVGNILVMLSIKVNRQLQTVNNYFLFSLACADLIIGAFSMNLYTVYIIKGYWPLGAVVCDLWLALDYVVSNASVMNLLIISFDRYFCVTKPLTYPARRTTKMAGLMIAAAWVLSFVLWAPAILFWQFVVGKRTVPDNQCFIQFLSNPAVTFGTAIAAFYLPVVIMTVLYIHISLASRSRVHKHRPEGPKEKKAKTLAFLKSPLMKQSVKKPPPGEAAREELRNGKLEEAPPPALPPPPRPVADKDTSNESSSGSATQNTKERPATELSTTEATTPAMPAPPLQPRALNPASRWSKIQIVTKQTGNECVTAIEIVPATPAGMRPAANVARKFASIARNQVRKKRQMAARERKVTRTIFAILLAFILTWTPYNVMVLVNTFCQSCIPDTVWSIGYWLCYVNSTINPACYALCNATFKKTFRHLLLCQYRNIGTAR
Outline: (§1)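 CHO cells expressing human M1–M4 receptors loaded with Fluo-3 AM or Calcium 3 dye (1 mM probenecid, pH 7.4); 0.5% DMSO final. Agonist mode: compound added directly; antagonist mode: 15 min pre-incubation or co-application, then carbachol at EC80. Fluorescence read 60 s on FLIPR; efficacy relative to carbachol maximum.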

M2 muscarinic receptor = molecular target: T2, M2 muscarinic receptor (Homo sapiens, UniProt P08172); assay: Functional mobilization of intracellular calcium (FLIPR), M2-CHO cells; settings: for M2 Activity: M2-CHO cells, calcium mobilization (FLIPR)
T2 construct: expressed in transfected cells; host or cells: CHO (M2-CHO)
T2 sequence (P08172 1-466): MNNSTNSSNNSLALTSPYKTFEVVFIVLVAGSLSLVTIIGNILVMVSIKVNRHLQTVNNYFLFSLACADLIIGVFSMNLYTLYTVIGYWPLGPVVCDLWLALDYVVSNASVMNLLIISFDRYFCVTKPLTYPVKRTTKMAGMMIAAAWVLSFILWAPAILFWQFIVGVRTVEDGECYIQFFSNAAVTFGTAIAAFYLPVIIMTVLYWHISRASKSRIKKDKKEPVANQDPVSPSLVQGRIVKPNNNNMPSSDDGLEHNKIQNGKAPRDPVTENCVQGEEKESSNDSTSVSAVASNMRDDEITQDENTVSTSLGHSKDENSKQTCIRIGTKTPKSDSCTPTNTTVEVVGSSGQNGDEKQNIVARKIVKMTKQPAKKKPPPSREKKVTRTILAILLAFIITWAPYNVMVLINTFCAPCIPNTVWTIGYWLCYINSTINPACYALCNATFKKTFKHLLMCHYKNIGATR
Outline: as §1

M1 muscarinic receptor = molecular target: T3, M1 muscarinic receptor (Homo sapiens, UniProt P11229); assay: Functional mobilization of intracellular calcium (FLIPR), M1-CHO cells; settings: for M1 Activity: M1-CHO cells, calcium mobilization (FLIPR)
T3 construct: expressed in transfected cells; host or cells: CHO (M1-CHO)
T3 sequence (P11229 1-460): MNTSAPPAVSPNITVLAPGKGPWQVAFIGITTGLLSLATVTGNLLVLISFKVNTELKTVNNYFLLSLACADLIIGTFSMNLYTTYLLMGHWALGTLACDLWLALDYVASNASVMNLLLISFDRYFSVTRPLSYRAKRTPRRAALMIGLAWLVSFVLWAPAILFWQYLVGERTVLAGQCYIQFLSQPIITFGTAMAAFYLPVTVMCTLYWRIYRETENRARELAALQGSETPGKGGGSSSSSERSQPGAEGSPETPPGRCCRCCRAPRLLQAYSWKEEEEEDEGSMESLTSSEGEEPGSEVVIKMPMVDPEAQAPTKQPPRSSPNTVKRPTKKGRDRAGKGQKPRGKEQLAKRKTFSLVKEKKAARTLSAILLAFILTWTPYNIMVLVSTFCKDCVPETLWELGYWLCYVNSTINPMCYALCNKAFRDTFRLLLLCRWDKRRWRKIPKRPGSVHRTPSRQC
Outline: as §1

M3 muscarinic receptor = molecular target: T4, M3 muscarinic receptor (Homo sapiens, UniProt P20309); assay: Functional mobilization of intracellular calcium (FLIPR), M3-CHO cells; settings: for M3 Activity: M3-CHO cells, calcium mobilization (FLIPR)
T4 construct: expressed in transfected cells; host or cells: CHO (M3-CHO)
T4 sequence (P20309 whole entry): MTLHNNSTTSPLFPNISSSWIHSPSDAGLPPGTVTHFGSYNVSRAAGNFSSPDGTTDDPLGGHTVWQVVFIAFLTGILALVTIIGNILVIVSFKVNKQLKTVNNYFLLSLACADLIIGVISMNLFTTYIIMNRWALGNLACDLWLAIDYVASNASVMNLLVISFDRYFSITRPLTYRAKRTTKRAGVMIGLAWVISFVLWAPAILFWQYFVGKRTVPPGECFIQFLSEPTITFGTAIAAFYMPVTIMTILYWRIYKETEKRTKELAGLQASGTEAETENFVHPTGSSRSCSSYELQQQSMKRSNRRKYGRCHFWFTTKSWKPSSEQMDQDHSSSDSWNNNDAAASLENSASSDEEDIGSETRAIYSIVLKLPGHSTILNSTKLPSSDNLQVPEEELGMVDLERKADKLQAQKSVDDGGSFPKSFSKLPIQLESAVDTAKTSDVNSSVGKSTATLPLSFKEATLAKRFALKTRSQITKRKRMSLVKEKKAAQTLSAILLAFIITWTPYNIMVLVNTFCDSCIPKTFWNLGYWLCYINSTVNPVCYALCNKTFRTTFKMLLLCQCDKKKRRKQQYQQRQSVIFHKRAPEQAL
Outline: as §1

[1] = 100% efficacy = maximum response obtained with the Carbachol control

Row | SMILES | Emax (M4 muscarinic receptor; [1]) | M4 Activity (M4 muscarinic receptor) | Emax (M2 muscarinic receptor; [1]) | M2 Activity (M2 muscarinic receptor) | Emax (M1 muscarinic receptor; [1]) | M1 Activity (M1 muscarinic receptor) | Emax (M3 muscarinic receptor; [1]) | M3 Activity (M3 muscarinic receptor) | M4 Efficacy (M4 muscarinic receptor; [1]) | M2 Efficacy (M2 muscarinic receptor; [1]) | M1 Efficacy (M1 muscarinic receptor; [1]) | M3 Efficacy (M3 muscarinic receptor; [1])
1 | COc1ccccc1C1CCN(C2CCOCC2)CC1 [Compound 90] | 25 to 100% | +++ (activity was measured to be less than 1.0 μM) | < 25% | + (activity was measured to be greater than 5.0 μM) | 25 to 100% | + (activity was measured to be greater than 5.0 μM) | < 25% | + (activity was measured to be greater than 5.0 μM) |  |  |  | 
2 | COc1ccc(-c2ccccc2C#N)cc1C1CCN([C@@H]2C[C@H]3CC[C@H]2C3)CC1 [Compound 92] | < 25% | + (activity was measured to be greater than 5.0 μM) | < 25% | + (activity was measured to be greater than 5.0 μM) | < 25% | + (activity was measured to be greater than 5.0 μM) | < 25% | + (activity was measured to be greater than 5.0 μM) |  |  |  | 
3 | Cc1ccccc1C1CCN([C@H]2C[C@H]3CC[C@H]2C3)CC1 [Compound 93] |  | +++ (activity was measured to be less than 1.0 μM) |  | + (activity was measured to be greater than 5.0 μM) |  | ++ (activity was measured to be from 1.0 μM to 5.0 μM) |  | + (activity was measured to be greater than 5.0 μM) | ++ (efficacy was calculated to be from 100% to 25%) | + (efficacy was calculated to be less than 25%) | ++ (efficacy was calculated to be from 100% to 25%) | + (efficacy was calculated to be less than 25%)
4 | CCOC(=O)N1CCC(CN2CCC(c3cc(C(F)(F)F)ccc3C)CC2)CC1 [Compound 94] | 25 to 100% | +++ (activity was measured to be less than 1.0 μM) | 25 to 100% | +++ (activity was measured to be less than 1.0 μM) | 25 to 100% | +++ (activity was measured to be less than 1.0 μM) | < 25% | ++ (activity was measured to be from 1.0 μM to 5.0 μM) |  |  |  | 
5 | COc1ccc(-c2cccc(C#N)c2)cc1C1CCN([C@H]2C[C@H]3CC[C@H]2C3)CC1 [Compound 97] | 25 to 100% | + (activity was measured to be greater than 5.0 μM) | < 25% | + (activity was measured to be greater than 5.0 μM) | < 25% | + (activity was measured to be greater than 5.0 μM) | < 25% | + (activity was measured to be greater than 5.0 μM) |  |  |  | 
6 | CCN(CC)C(=O)c1ccc(-c2ccc(OC)c(C3CCN([C@H]4C[C@H]5CC[C@H]4C5)CC3)c2)cc1 [Compound 98] | < 25% | ++ (activity was measured to be from 1.0 μM to 5.0 μM) | < 25% | + (activity was measured to be greater than 5.0 μM) | < 25% | + (activity was measured to be greater than 5.0 μM) | < 25% | + (activity was measured to be greater than 5.0 μM) |  |  |  | 
7 | CNC(=O)c1ccc(-c2ccc(OC)c(C3CCN(C4CC5CCC(C5)C4)CC3)c2)cc1Cl (stereo not drawn) [Compound 100] | 25 to 100% | ++ (activity was measured to be from 1.0 μM to 5.0 μM) | < 25% | + (activity was measured to be greater than 5.0 μM) | < 25% | + (activity was measured to be greater than 5.0 μM) | < 25% | + (activity was measured to be greater than 5.0 μM) |  |  |  | 
8 | COc1ccc(-c2ccc(S(C)(=O)=O)cc2)cc1C1CCN([C@H]2C[C@H]3CC[C@H]2C3)CC1 [Compound 102] | 25 to 100% | ++ (activity was measured to be from 1.0 μM to 5.0 μM) | < 25% | + (activity was measured to be greater than 5.0 μM) | < 25% | + (activity was measured to be greater than 5.0 μM) | < 25% | + (activity was measured to be greater than 5.0 μM) |  |  |  | 
9 | COc1c(F)cc(F)cc1C1CCN([C@@H]2C[C@H]3CC[C@H]2C3)CC1 [Compound 103] | < 25% | ++ (activity was measured to be from 1.0 μM to 5.0 μM) | < 25% | + (activity was measured to be greater than 5.0 μM) | < 25% | + (activity was measured to be greater than 5.0 μM) | < 25% | + (activity was measured to be greater than 5.0 μM) |  |  |  | 
10 | COc1ccc(F)cc1C1CCN(CC2CC3CCC2CC3)CC1 (stereo not drawn) [Compound 104] | 25 to 100% | ++ (activity was measured to be from 1.0 μM to 5.0 μM) | < 25% | + (activity was measured to be greater than 5.0 μM) | < 25% | + (activity was measured to be greater than 5.0 μM) | < 25% | + (activity was measured to be greater than 5.0 μM) |  |  |  | 
11 | COc1ccc(-c2ccc(C(C)(C)C#N)cc2)cc1C1CCN(C2CCCCC2)CC1 [Compound 105] | 25 to 100% | + (activity was measured to be greater than 5.0 μM) | 25 to 100% | + (activity was measured to be greater than 5.0 μM) | 25 to 100% | ++ (activity was measured to be from 1.0 μM to 5.0 μM) | < 25% | + (activity was measured to be greater than 5.0 μM) |  |  |  | 
12 | CCOC(=O)N1CCC(N2CCC(c3cc(F)ccc3OC)CC2)CC1 [Compound 106] | 25 to 100% | +++ (activity was measured to be less than 1.0 μM) | 25 to 100% | +++ (activity was measured to be less than 1.0 μM) | 25 to 100% | +++ (activity was measured to be less than 1.0 μM) | < 25% | +++ (activity was measured to be less than 1.0 μM) |  |  |  | 
